Biological target: T1, ITK (Homo sapiens, UniProt Q08881)
T1 construct: purchased Invitrogen PV3875
T1 sequence (Q08881 1-620): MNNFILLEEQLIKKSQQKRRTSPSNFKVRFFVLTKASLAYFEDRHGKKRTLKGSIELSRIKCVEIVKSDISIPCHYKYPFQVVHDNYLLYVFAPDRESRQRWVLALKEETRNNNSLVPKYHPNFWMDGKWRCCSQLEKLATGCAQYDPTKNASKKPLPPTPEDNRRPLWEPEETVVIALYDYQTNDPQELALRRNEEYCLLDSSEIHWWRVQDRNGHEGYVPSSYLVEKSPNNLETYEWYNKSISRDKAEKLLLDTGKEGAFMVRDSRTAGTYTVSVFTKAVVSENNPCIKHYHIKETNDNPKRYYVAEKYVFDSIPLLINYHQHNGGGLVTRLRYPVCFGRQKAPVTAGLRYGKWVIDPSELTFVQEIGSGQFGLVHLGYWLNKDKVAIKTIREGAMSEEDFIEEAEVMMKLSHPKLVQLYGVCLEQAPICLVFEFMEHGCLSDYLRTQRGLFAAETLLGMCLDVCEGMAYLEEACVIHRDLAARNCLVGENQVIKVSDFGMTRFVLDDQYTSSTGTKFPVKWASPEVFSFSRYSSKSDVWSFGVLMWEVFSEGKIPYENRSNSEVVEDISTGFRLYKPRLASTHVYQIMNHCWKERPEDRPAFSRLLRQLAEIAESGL
Test: ITK enzyme assay (Caliper or LCMS peptide phosphorylation)
Format: biochemical
Details: purified ITK (Invitrogen PV3875), 20 μM ATP, Ki by Morrison's quadratic equation
In short: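 Ki values come from Morrison quadratic fits of activity versus inhibitor concentration, adjusted for ATP-competitive inhibition against ATP/Km,app. Substrate and phosphopeptide from purified ITK reactions were resolved either microfluidically (Caliper, EDTA stop) or by LC-MS MRM (TCA stop).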

Ki [nM] | SMILES
3 | O=C(Nc1cnn(Cc2ccccc2)c1)c1n[nH]c2c1CCC1(CCCC1=O)C2 (single isomer, unassigned) [Example 105a, N-(1-benzyl-1H-pyrazol-4-yl)-2-oxo-1′,4′,5′,7′-tetrahydrospiro[cyclopentane-1,6′-indazole]-3′-carboxamide]
240 | O=C(Nc1cnn(Cc2ccccc2)c1)c1n[nH]c2c1CCC1(CCCC1=O)C2 (single isomer, unassigned) [Example 105b, N-(1-benzyl-1H-pyrazol-4-yl)-2-oxo-1′,4′,5′,7′-tetrahydrospiro[cyclopentane-1,6′-indazole]-3′-carboxamide]
3 | CC(c1cccnc1)n1cc(NC(=O)c2n[nH]c3c2CCC(C)(C)C3)cn1 (single isomer, unassigned) [Example 106a, 6,6-dimethyl-N-(1-(1-(pyridin-3-yl)ethyl)-1H-pyrazol-4-yl)-4,5,6,7-tetrahydro-1H-indazole-3-carboxamide]
5 | CC(c1cccnc1)n1cc(NC(=O)c2n[nH]c3c2CCC(C)(C)C3)cn1 (single isomer, unassigned) [Example 106b, 6,6-dimethyl-N-(1-(1-(pyridin-3-yl)ethyl)-1H-pyrazol-4-yl)-4,5,6,7-tetrahydro-1H-indazole-3-carboxamide]
18 | CC(c1ccncc1)n1cc(NC(=O)c2n[nH]c3c2CCC(C)(C)C3)cn1 (single isomer, unassigned) [Example 107a, 6,6-dimethyl-N-(1-(1-(pyridin-4-yl)ethyl)-1H-pyrazol-4-yl)-4,5,6,7-tetrahydro-1H-indazole-3-carboxamide]
14 | CC(c1ccncc1)n1cc(NC(=O)c2n[nH]c3c2CCC(C)(C)C3)cn1 (single isomer, unassigned) [Example 107b, 6,6-dimethyl-N-(1-(1-(pyridin-4-yl)ethyl)-1H-pyrazol-4-yl)-4,5,6,7-tetrahydro-1H-indazole-3-carboxamide]
17 | CC(c1cncc(F)c1)n1cc(NC(=O)c2n[nH]c3c2CCC(C)(C)C3)cn1 (single isomer, unassigned) [Example 108a, N-(1-(1-(5-fluoropyridin-3-yl)ethyl)-1H-pyrazol-4-yl)-6,6-dimethyl-4,5,6,7-tetrahydro-1H-indazole-3-carboxamide]
5 | CC(c1cncc(F)c1)n1cc(NC(=O)c2n[nH]c3c2CCC(C)(C)C3)cn1 (single isomer, unassigned) [Example 108b, N-(1-(1-(5-fluoropyridin-3-yl)ethyl)-1H-pyrazol-4-yl)-6,6-dimethyl-4,5,6,7-tetrahydro-1H-indazole-3-carboxamide]
4 | COc1ccc(C(C)n2cc(NC(=O)c3n[nH]c4c3CCC(C)(C)C4)cn2)cn1 (single isomer, unassigned) [Example 109a, N-(1-(1-(6-methoxypyridin-3-yl)ethyl)-1H-pyrazol-4-yl)-6,6-dimethyl-4,5,6,7-tetrahydro-1H-indazole-3-carboxamide]
21 | COc1ccc(C(C)n2cc(NC(=O)c3n[nH]c4c3CCC(C)(C)C4)cn2)cn1 (single isomer, unassigned) [Example 109b, N-(1-(1-(6-methoxypyridin-3-yl)ethyl)-1H-pyrazol-4-yl)-6,6-dimethyl-4,5,6,7-tetrahydro-1H-indazole-3-carboxamide]
0.2 | CC1(C)CCc2c(C(=O)Nc3cnn(C(c4cccc(C#N)c4)C4CCS(=O)(=O)CC4)c3)n[nH]c2C1 (single isomer, unassigned) [Example 110a, N-(1-((3-cyanophenyl)(1,1-dioxidotetrahydro-2H-thiopyran-4-yl)methyl)-1H-pyrazol-4-yl)-6,6-dimethyl-4,5,6,7-tetrahydro-1H-indazole-3-carboxamide]
3 | CC1(C)CCc2c(C(=O)Nc3cnn(C(c4cccc(C#N)c4)C4CCS(=O)(=O)CC4)c3)n[nH]c2C1 (single isomer, unassigned) [Example 110b, N-(1-((3-cyanophenyl)(1,1-dioxidotetrahydro-2H-thiopyran-4-yl)methyl)-1H-pyrazol-4-yl)-6,6-dimethyl-4,5,6,7-tetrahydro-1H-indazole-3-carboxamide]
5 | CC1(C)CCc2c(C(=O)Nc3cnn(C(c4ccccc4)C4CCOCC4)c3)n[nH]c2C1 (single isomer, unassigned) [Example 113a, 6,6-dimethyl-N-(1-(phenyl(tetrahydro-2H-pyran-4-yl)methyl)-1H-pyrazol-4-yl)-4,5,6,7-tetra hydro-1H-indazole-3-carboxamide]
0.3 | CC1(C)CCc2c(C(=O)Nc3cnn(C(c4ccccc4)C4CCOCC4)c3)n[nH]c2C1 (single isomer, unassigned) [Example 113b, 6,6-dimethyl-N-(1-(phenyl(tetrahydro-2H-pyran-4-yl)methyl)-1H-pyrazol-4-yl)-4,5,6,7-tetra hydro-1H-indazole-3-carboxamide]
0.8 | Cn1ccnc1C(c1cccs1)n1cc(NC(=O)c2n[nH]c3c2CCC(C)(C)C3)cn1 (single isomer, unassigned) [Example 114a, 6,6-dimethyl-N-(1-((1-methyl-1H-imidazol-2-yl)(thiophen-2-yl)methyl)-1H-pyrazol-4-yl)-4,5,6,7-tetrahydro-H-indazole-3-carboxamide]
12 | Cn1ccnc1C(c1cccs1)n1cc(NC(=O)c2n[nH]c3c2CCC(C)(C)C3)cn1 (single isomer, unassigned) [Example 114b, 6,6-dimethyl-N-(1-((1-methyl-1H-imidazol-2-yl)(thiophen-2-yl)methyl)-1H-pyrazol-4-yl)-4,5,6,7-tetrahydro-H-indazole-3-carboxamide]
0.2 | CC1(C)CCc2c(C(=O)Nc3cnn(C(c4cccc(Cl)c4)C4CCOCC4)c3)n[nH]c2C1 (single isomer, unassigned) [Example 115a, N-(1-((3-chlorophenyl)(tetrahydro-2H-pyran-4-yl)methyl)-1H-pyrazol-4-yl)-6,6-dimethyl-4,5,6,7-tetrahydro-1H-indazole-3-carboxamide]
7 | CC1(C)CCc2c(C(=O)Nc3cnn(C(c4cccc(Cl)c4)C4CCOCC4)c3)n[nH]c2C1 (single isomer, unassigned) [Example 115b, N-(1-((3-chlorophenyl)(tetrahydro-2H-pyran-4-yl)methyl)-1H-pyrazol-4-yl)-6,6-dimethyl-4,5,6,7-tetrahydro-1H-indazole-3-carboxamide]
< 0.1 | CC12Cc3[nH]nc(C(=O)Nc4cnn(C(c5cccnc5)C5CS(=O)(=O)C5)c4)c3CC1C2 (single isomer, unassigned) [Example 116a, N-(1-((1,1-dioxidothietan-3-yl)(pyridin-3-yl)methyl)-1H-pyrazol-4-yl)-5a-methyl-1,4,4a,5,5a,6-hexahydrocyclopropa[f]indazole-3-carboxamide]
2 | CC12Cc3[nH]nc(C(=O)Nc4cnn(C(c5cccnc5)C5CS(=O)(=O)C5)c4)c3CC1C2 (single isomer, unassigned) [Example 116b, N-(1-((1,1-dioxidothietan-3-yl)(pyridin-3-yl)methyl)-1H-pyrazol-4-yl)-5a-methyl-1,4,4a,5,5a,6-hexahydrocyclopropa[f]indazole-3-carboxamide]
0.2 | CC1(C)CCc2c(C(=O)Nc3cnn(C(c4cccnc4)C4CS(=O)(=O)C4)c3)n[nH]c2C1 (single isomer, unassigned) [Example 117a]
6 | CC1(C)CCc2c(C(=O)Nc3cnn(C(c4cccnc4)C4CS(=O)(=O)C4)c3)n[nH]c2C1 (single isomer, unassigned) [Example 117b]
0.1 | CC1(C)CCc2c(C(=O)Nc3cnn(C(c4cccc(C(C)(C)O)c4)C4CCS(=O)(=O)CC4)c3)n[nH]c2C1 (single isomer, unassigned) [Example 119a]
4 | CC1(C)CCc2c(C(=O)Nc3cnn(C(c4cccc(C(C)(C)O)c4)C4CCS(=O)(=O)CC4)c3)n[nH]c2C1 (single isomer, unassigned) [Example 119b]
0.1 | CC12Cc3[nH]nc(C(=O)Nc4cnn(C(c5ccccc5)C5CC[S+]([O-])CC5)c4)c3CC1C2 (single isomer, unassigned) [Example 120a, 5a-methyl-N-(1-((1-oxidotetrahydro-2H-thiopyran-4-yl)(phenyl)methyl)-1H-pyrazol-4-yl)-1,4,4a,5,5a,6-hexahydrocyclopropa[f]indazole-3-carboxamide]
< 0.1 | CC12Cc3[nH]nc(C(=O)Nc4cnn(C(c5ccccc5)C5CC[S+]([O-])CC5)c4)c3CC1C2 (single isomer, unassigned) [Example 120b, 5a-methyl-N-(1-((1-oxidotetrahydro-2H-thiopyran-4-yl)(phenyl)methyl)-1H-pyrazol-4-yl)-1,4,4a,5,5a,6-hexahydrocyclopropa[f]indazole-3-carboxamide]
6 | CC1(C)CCc2c(C(=O)Nc3cnn(C(CCN4CC(F)(F)C4)c4ccccc4)c3)n[nH]c2C1 (single isomer, unassigned) [Example 121a, N-(1-(3-(3,3-difluoroazetidin-1-yl)-1-phenylpropyl)-1H-pyrazol-4-yl)-6,6-dimethyl-4,5,6,7-tetrahydro-1H-indazole-3-carboxamide]
